How the values were obtained:
Format in all cases: cell-based, human
GSK-3β = test: Western blotting, GSK-3β, JeKo-1 cells; settings: 0.5 μM, entire cell, 24 hours
Experimental: (§1) Specifically, first, JeKo-1 cells were cultured for 0 (control), 12, 24, and 48 hours in the presence of 0.5 μM of 3EZ,20Ac-ingenol. In addition, Panc-1 cells were cultured for 0 (control), 12, 24, and 48 hours in the presence of 3 μM of 3EZ,20Ac-ingenol.
(§2) Subsequently, abundances of GSK-3β and p-GSK-3β in the respective cells were analyzed by Western blotting using an anti-GSK-3β antibody (Cell Signaling Technology) and an anti-p-GSK-3β (Ser^9) antibody (Cell Signaling Technology). Furthermore, as a loading control, actin protein was detected using an anti-actin antibody (Sigma).

ATR protein = test: Western blotting, ATR protein, BALL-1 cells; settings: 0.5 μM
Experimental: The effects of 3EZ,20Ac-ingenol treatment on expression of ATR were examined. First, BALL-1 cells were cultured in the presence of 3EZ,20Ac-ingenol at a final concentration of 0.5 μM for 12, 24, and 48 hours, and an expression level of ATR protein was analyzed by Western blotting using an anti-ATR antibody (Santa Cruz). Cells cultured in the absence of 3EZ,20Ac-ingenol were used as controls.
Subsequently, siRNA against ATR (“ON-TARGET Plus Human ATR (545) siRNA-SMARTpool,” GE Dharmacon) was introduced into BALL-1 cells at a final concentration of 50 nM and incubated for 48 hours. Subsequently, a cell medium was replaced with a new medium containing 3EZ,20Ac-ingenol at a final concentration of 0.5 μM and culturing was performed for 12, 24, and 48 hours, and an expression level of ATR protein was analyzed by Western blotting using an anti-ATR antibody (Santa Cruz).
Cells into which control siRNA (“ON-TARGET Plus Nontargeting pool,” GE Dharmacon) was introduced and which were then cultured in the absence of 3EZ,20Ac-ingenol were used as controls.

BALL-1 cells = test: Cell cycle analysis by flow cytometry; settings: 0.5 μM
Experimental: Specifically, BALL-1 cells were treated with 3EZ,20Ac-ingenol at a final concentration of 0.5 μM for 6, 12, 24, and 48 hours, and then a phase of a cell cycle was analyzed using flow cytometry. In addition, cells that were not treated with 3EZ,20Ac-ingenol were used as controls.

caspase 3 = test: Western blotting, activated caspase 3, JeKo-1 cells; settings: 0.5 μM, 48 hours after treatment
Experimental: Specifically, JeKo-1 cells were cultured for 0 (control), 12, 24, and 48 hours in the presence of 0.5 μM of 3EZ,20Ac-ingenol. In addition. Panc-1 cells were cultured for 0 (control), 12, 24, and 48 hours in the presence of 3 μM of 3EZ,20Ac-ingenol. Subsequently, activation of caspase 3 in the respective cells was detected by Western blotting using an anti-activated-caspase antibody (R & D Systems). Furthermore, as a loading control, actin protein was detected using an anti-actin antibody (Sigma).

Panc-1 cells = test: Cell Death Detection ELISA, Panc-1; settings: 3 μM
Experimental: The induction of apoptosis by 3EZ,20Ac-ingenol treatment was examined by detecting histone-binding DNA fragmentation in the cytoplasm using a Cell Death Detection […] kit (Roche Applied Science).
Specifically, Panc-1 cells were inserted into tubes at 5×10^3 cells/well/100 μL, and incubated for 6, 12, 24, 48, and 72 hours in the presence of 3EZ,20Ac-ingenol at a final concentration of 3 μM. Subsequently, the respective cells were lysed in a lysis buffer. Subsequently, the supernatant of cell debris of the respective cells was collected and transferred to an ELISA plate, and an absorbance at a wavelength of 405 nm was measured to measure the induction of apoptosis.

p-GSK-3β (Ser^9) = test: Western blotting, p-GSK-3β (Ser9), Panc-1 cells; settings: 3 μM, entire cell
Experimental: as §1, §2

[1] = tested on: phosphorylated p53 (p-p53) protein; test: Western blotting, phosphorylated p53, JeKo-1 cells; settings: 0.5 μM, entire cells
Experimental: Specifically, JeKo-1 cells were cultured for 0 (control), 12, 24, and 48 hours in the presence of 0.5 μM of 3EZ,20Ac-ingenol. In addition, Panc-1 cells were cultured for 0 (control), 12, 24, and 48 hours in the presence of 3 μM of 3EZ,20Ac-ingenol.
Subsequently, ATR protein, p53 protein, and phosphorylated p53 (hereinafter also referred to as “p-p53”) protein in the respective cells were respectively detected using an anti-ATR antibody (Cell Signaling Technology), an anti-p53 antibody (Santa Cruz), and an anti-p-p53 antibody (Cell Signaling Technology). Furthermore, as a loading control, actin protein was detected using an anti-actin antibody (Sigma).

JeKo-1 cells = test: MTT assay, JeKo-1 cells; settings: 48 hours
Experimental: JeKo-1 cells of a cell line derived from a human mantle cell lymphoma were seeded in a 96-well plate at 1×10^4 cells/well/100 μL. In addition, Panc-1 cells of a cell line derived from a human pancreatic cancer were seeded in a 96-well plate at 3×10^3 cells/well/100 μL.
Subsequently, 3EZ,20Ac-ingenol at final concentrations of 0 (control), 0.1, 0.5, 1, 5, and 10 μM was added the wells of the respective cells, and culturing was performed for 48 hours. Subsequently, cell proliferation was examined by MTT assay using a Cell Proliferation Kit I (Roche Applied Science).
First, JeKo-1 cells were seeded in a 96-well plate at 1×10^4 cells/well/100 μL. Subsequently, irinotecan at a final concentration of 0 (control), 0.5, 1, 5, 10, 20, and 30 μM was added to the wells of the cells and culturing was performed for 48 hours. In addition, Panc-1 cells were seeded in a 96-well plate at 3×10^3 cells/well/100 μL. Subsequently, irinotecan at a final concentration of 0 (control), 0.5, 1, 5, 10, 20, 30, and 50 μM was added to the wells of the cells and culturing was performed for 48 hours. Subsequently, cell proliferation was examined by MTT assay using a Cell Proliferation Kit I (Roche Applied Science).

cyclin D1 = test: Western blotting, cyclin D1, Panc-1 cells; settings: 3 μM
Experimental: as §1
Subsequently, abundances of cyclin D1 in entire cell fractions, nuclear fractions, and cytoplasm fractions of the respective cells were analyzed by Western blotting.

Question: Which “GSK-3β (an active type)” value (GSK-3β) does the source give for CCCCC/C=C\C=C\C(=O)O[C@H]1C(C)=C[C@]23C(=O)[C@@H](C=C(COC(C)=O)[C@@H](O)[C@]12O)[C@H]1[C@@H](C[C@H]3C)C1(C)C [3EZ,20Ac-ingenol, 3-O-(2′E,4′Z-decadienoyl)-20-O-acetylingenol] here?
Answer: an increase in GSK-3β was observed

Question: What about the “expression of ATR” value (ATR protein; cells with siRNA against ATR introduced, 12, 24, 48 hours) of the same molecule?
Answer: an increase in ATR expression was not recognized

Question: And the “expression of ATR” value (ATR protein; from 12 hours until 48 hours)?
Answer: the expression of ATR increased

Question: And the “proportion of S-phase cells” value (BALL-1 cells; after 6 hours)?
Answer: 68%

Question: What about the “proportion of G2/M-phase cells” value (BALL-1 cells; after 12 hours and 24 hours) of the same molecule?
Answer: about 3%

Question: What about the “proportion of S-phase cells” value (BALL-1 cells; after 12 hours and 24 hours) of the same molecule?
Answer: 75%

Question: What about the “proportion of G1-phase cells” value (BALL-1 cells; after 24 hours) of the same molecule?
Answer: about 19%

Question: And the “activation of caspase 3” value (caspase 3)?
Answer: activation of caspase 3 was observed

Question: What about the “DNA fragmentation (apoptosis), onset” value (Panc-1 cells) of the same molecule?
Answer: DNA fragmentation started 24 hours after the incubation

Question: What about the “amount of fragmented DNA (apoptosis)” value (Panc-1 cells; 48 hours and 72 hours) of the same molecule?
Answer: the amount of fragmented DNA further increased

Question: What about the “p-GSK-3β (an inactive type)” value (p-GSK-3β (Ser^9)) of the same molecule?
Answer: a decrease in p-GSK-3β (an inactive type) was observed

Question: And the “phosphorylation of p53” value [1]?
Answer: phosphorylation of p53 was not confirmed

Question: And the “proliferation inhibition of JeKo-1 cells” value (JeKo-1 cells; 1 to 10 μM of 3EZ,20Ac-ingenol)?
Answer: grown cells were almost eliminated

Question: And the IC50 (JeKo-1 cells; MTT assay, read-out: IC50 with respect to the JeKo-1 cells)?
Answer: 500 nM

Question: What about the “abundance of cyclin D1” value (cyclin D1; cytoplasm fraction, 12 to 48 hours) of the same molecule?
Answer: an abundance of cyclin D1 decreased

Question: What about the “expression level of cyclin D1” value (cyclin D1; entire cell fraction, 12 to 24 hours) of the same molecule?
Answer: temporarily increased

Question: And the “expression level of cyclin D1” value (cyclin D1; entire cell fraction, after 24 hours)?
Answer: then decreased thereafter

Question: And the “expression level of cyclin D1” value (cyclin D1; nuclear fraction, 12 hours)?
Answer: temporarily increased

Question: What about the “expression level of cyclin D1” value (cyclin D1; nuclear fraction, after 24 hours) of the same molecule?
Answer: decreased after 24 hours

From patent US11464750B2, “Anticancer agent and use thereof” (priority 2017, dated 2022)
